The record followed here is EP0022478B1, “Polyhydro-3,7-dimethyl-8-(2-(tetrahydro-4-hydroxy-6-oxo-2H-pyran-2-yl)-ethyl)-1-naphthylenyl-2-methylbutanoates, corresponding hydroxy acids, process for preparing and pharmaceutical compositions containing the same” (Merck & Co., Inc., priority 1979, dated 1981).

Each structure is given as a SMILES string. Where a name gives a salt, the structure may show the parent alone. Read-outs that look alike come from different tables or passages of the source.

The target in data set [1] is T1, mouse L―M cells (Mus musculus, UniProt Q01237).
T1 sequence (Q01237 1-887): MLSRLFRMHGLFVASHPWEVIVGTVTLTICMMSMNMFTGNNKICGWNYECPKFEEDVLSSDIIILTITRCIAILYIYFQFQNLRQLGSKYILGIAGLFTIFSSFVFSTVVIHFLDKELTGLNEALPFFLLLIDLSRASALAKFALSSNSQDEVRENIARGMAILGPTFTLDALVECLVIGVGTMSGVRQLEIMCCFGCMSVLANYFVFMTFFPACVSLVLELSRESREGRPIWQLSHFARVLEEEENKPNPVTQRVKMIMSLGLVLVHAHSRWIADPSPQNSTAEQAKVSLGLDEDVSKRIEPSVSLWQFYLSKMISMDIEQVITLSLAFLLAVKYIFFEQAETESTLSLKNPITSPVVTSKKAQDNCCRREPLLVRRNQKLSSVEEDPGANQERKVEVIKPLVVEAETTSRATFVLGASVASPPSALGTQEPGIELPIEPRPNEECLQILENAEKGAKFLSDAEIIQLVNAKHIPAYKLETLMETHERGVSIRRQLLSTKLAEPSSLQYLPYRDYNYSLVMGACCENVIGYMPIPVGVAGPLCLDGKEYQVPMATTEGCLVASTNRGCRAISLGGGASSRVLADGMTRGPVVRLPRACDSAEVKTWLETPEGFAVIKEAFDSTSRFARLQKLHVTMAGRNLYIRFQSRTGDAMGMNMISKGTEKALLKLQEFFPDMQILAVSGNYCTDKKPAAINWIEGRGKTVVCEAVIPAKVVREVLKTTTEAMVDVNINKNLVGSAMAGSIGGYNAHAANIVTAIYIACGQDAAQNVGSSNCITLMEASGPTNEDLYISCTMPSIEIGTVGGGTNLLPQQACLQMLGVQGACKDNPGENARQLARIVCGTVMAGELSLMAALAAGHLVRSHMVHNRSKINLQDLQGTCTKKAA
Put plainly: Inhibition of sterol synthesis in cell culture (14C sterol from 14C acetic acid). Format: cell-based. As for the experimental part:
The procedure of A. W. Alberts et al., J. Biol. Chem. 249: 5241 (1974) measuring the quantity of ^14C sterol biosynthesis frofdm ^14C acetic acid in mouse L―M cells in culture was employed with modification. The test compound in 10 µl DMSO was added to the monolayer cultures with 5 µCi of ^14C acetate. After a 3 hour incubation, the cells were saponified and the ^14C sterol extracted and isolated by thin layer chromatography on silica gel using petroleum ether-diethyl ether-acetic acid (75:25:1). The region on the plate containing ^14C sterol was identified by staining with 12 and the ^14C content determined by liquid scintillation counting.

Data set [2] deals with T2, HMG-CoA Reductase (Rattus norvegicus, UniProt P51639).
T2 sequence (P51639 1-887): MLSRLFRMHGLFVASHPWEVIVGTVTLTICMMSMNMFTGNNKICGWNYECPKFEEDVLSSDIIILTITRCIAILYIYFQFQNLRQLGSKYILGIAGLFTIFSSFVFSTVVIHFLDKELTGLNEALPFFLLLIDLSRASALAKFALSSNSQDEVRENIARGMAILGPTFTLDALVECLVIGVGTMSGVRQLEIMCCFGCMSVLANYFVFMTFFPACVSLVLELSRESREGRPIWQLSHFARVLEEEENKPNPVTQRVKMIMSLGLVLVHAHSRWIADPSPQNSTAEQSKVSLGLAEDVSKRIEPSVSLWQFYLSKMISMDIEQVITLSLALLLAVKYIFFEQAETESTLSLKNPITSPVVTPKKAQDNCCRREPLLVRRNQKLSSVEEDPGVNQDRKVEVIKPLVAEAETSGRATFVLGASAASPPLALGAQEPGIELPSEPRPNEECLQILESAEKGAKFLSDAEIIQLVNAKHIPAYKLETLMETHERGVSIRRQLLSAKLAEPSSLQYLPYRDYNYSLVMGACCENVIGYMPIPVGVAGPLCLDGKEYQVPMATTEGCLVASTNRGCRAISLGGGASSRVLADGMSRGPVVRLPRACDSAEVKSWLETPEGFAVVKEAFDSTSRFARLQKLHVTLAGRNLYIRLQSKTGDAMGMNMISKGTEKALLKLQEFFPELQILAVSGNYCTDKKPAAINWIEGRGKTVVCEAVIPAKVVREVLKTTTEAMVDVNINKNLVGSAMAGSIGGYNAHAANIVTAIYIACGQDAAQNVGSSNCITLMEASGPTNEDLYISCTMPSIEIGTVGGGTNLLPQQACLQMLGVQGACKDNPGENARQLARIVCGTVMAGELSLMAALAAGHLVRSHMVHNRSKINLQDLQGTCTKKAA
As to the kind of experiment: In vitro inhibition of HMG Coenzyme A reductase, Beg method modified by 5 min preincubation of enzyme with inhibitor. As to conditions: modified procedure; read-out: IC50 in inhibiting HMG-CoA Reductase. The data set is classed as biochemical.
Experimental: The method of Beg et al., FEBS Letters, 80 123 (1977) was modified slightly by incubating the enzyme with the inhibitor for five minutes before initiating the reaction with the substrate.

In data set [3] the test system is cholesterol synthesis. Put plainly: In vivo inhibition of cholesterol synthesis (14C acetate into 14C cholesterol). The arrangement: species or system male Holtzman rats. As to conditions: 14C acetate IP after one hour, bled 50 minutes later. As for the experimental part: Groups of male Holtzman rats were dosed with either 5% emulphor in saline or test compound in emulphor by stomach tube. After one hour 80 µCi of ^14C acetate/kg was given IP. The rats were bled 50 minutes later and ^14C cholesterol was determined as a measure of sterol synthesis: […]

Data set [4] is described as follows: Stability of the hydroxy acid on standing.
Setting [5] is: mouse L-M cell monolayers, 3 hour incubation with 14C acetate; read-out: IC50 in inhibiting HMG-CoA reductase.

For `CCC(C)C(=O)O[C@H]1C[C@@H](C)C=C2C=C[C@H](C)[C@H](CC[C@@H]3C[C@@H](O)CC(=O)O3)[C@H]21` (stereo partly drawn) [Compound I], the IC50 in data set [1] (read-out: IC50 in inhibiting HMG-CoA reductase; mouse L-M cell monolayers, 3 hour incubation with 14C acetate) came to 22 nM.

Regarding `CCC(C)C(=O)O[C@H]1C[C@@H](C)C[C@@H]2C=C[C@H](C)[C@H](CC[C@@H](O)C[C@@H](O)CC(=O)O)[C@@H]12` (stereo partly drawn) [sodium salt of Compound IV], in data set [2], the IC50 was 2.7 nM.

As for `CC[C@H](C)C(=O)O[C@H]1CCC=C2C=C[C@H](C)[C@H](CC[C@@H]3C[C@@H](O)CC(=O)O3)[C@H]21` [ML236B, compactin, reference compound], the IC50 in data set [2] was 5.4 nM; in data set [1] (setting [5]), 46 nM.

In the case of `CCC(C)C(=O)O[C@H]1C[C@@H](C)C[C@@H]2C=C[C@H](C)[C@H](CC[C@@H]3C[C@@H](O)CC(=O)O3)[C@@H]12` (stereo partly drawn) [Compound II], the entries for the “% Inhibition” value in data set [3] (dose 0.15 mg/kg by stomach tube), in data set [3] (dose 0.6 mg/kg by stomach tube) and in data set [3] (dose 1.2 mg/kg by stomach tube) were 38%, 51% and 70%, respectively. Also, the IC50 in data set [1] (setting [5]) came out at 17 nM.

Consider `CCC(C)C(=O)OC1CC(C)CC2C=CC(C)C(CCC(O)CC(O)CC(=O)O)C21` (stereo not drawn) [Compound IV], for which, in data set [4], the “stability of hydroxy acid on standing” value is given as “slowly reverts to the lactone”.
